Counter-ions that a name gives are not always drawn. Like-named read-outs stand apart in the source and are kept apart here.
Tested on: Acinetobacter baumannii ATCC17961
Experiment: Antimicrobial susceptibility testing: 90% growth inhibitory concentration (IC90) determination, Iso-Sensitest broth
Format: cell-based
Details: Acinetobacter baumannii
How it was run: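 Twofold serial dilutions (e.g. 10 to 0.02 μM final) were tested in Iso-Sensitest broth against ~5×10^(5) CFU/ml at 35±2 °C. OD600 was read every 20 min over 16 h. IC90 was derived from growth inhibition during the logarithmic phase.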

[1] = ATCC17961, 90% growth inhibitory concentration, Acinetobacter baumannii ATCC17961, Iso-Sensitest broth, read-out: ATCC 17961 IC90

Structure (SMILES) | IC90 [1] [nM] | IC90 (ATCC17961, read-out: ATCC 17961 IC90) [nM]
COc1c(F)cc(-c2cnc(C(=O)Nc3ccc(C(=O)N4CCN(C(=O)C5CCNCC5)CC4)c(Cl)c3)n2C)c(F)c1F [Example 168, N-[3-chloro-4-[4-(piperidine-4-carbonyl)piperazine-1-carbonyl]phenyl]-1-methyl-5-(2,3,5-trifluoro-4-methoxy-phenyl)imidazole-2-carboxamide formate] | 150 | 
Cc1cc(NC(=O)c2ncc(-c3ccc(OCC#N)c(F)c3F)n2C)ccc1C(=O)N1CCC(C(=O)N2CCO[C@H](CN)C2)CC1 [Example 83, (R)-N-(4-(4-(2-(aminomethyl)morpholine-4-carbonyl)piperidine-1-carbonyl)-3-methylphenyl)-5-(4-(cyanomethoxy)-2,3-difluorophenyl)-1-methyl-1H-imidazole-2-carboxamide 2,2,2-trifluoroacetate] | 170 | 
COc1ccc(-c2cnc(C(=O)Nc3ccc(C(=O)N4CCN(C(=O)CC5CNC(=O)C5)CC4)c(Cl)c3)n2C)c(F)c1F (stereo not shown) [Example 129, N-[3-chloro-4-[4-[2-(5-oxopyrrolidin-3-yl)acetyl]piperazine-1-carbonyl]phenyl]-5-(2,3-difluoro-4-methoxy-phenyl)-1-methyl-imidazole-2-carboxamide] | 40 | 
Cn1c(-c2ccc(OC(F)F)c(F)c2Cl)cnc1C(=O)Nc1ccc(C(=O)N2CCN(C(=O)C3(O)CCNCC3)CC2)c(Cl)c1 [Example 169, 5-[2-chloro-4-(difluoromethoxy)-3-fluoro-phenyl]-N-[3-chloro-4-[4-(4-hydroxypiperidine-4-carbonyl)piperazine-1-carbonyl]phenyl]-1-methyl-imidazole-2-carboxamide formate] | 30 | 
COc1ccc(-c2cnc(C(=O)Nc3ccc(C(=O)N4CCN(C(=O)CCOCCNC(=O)CN(C)C)CC4)c(Cl)c3)n2C)c(F)c1F [Example 299, N-[3-Chloro-4-[4-[3-[2-[[2-(dimethylamino)acetyl]amino]ethoxy]propanoyl]piperazine-1-carbonyl]phenyl]-5-(2,3-difluoro-4-methoxy-phenyl)-1-methyl-imidazole-2-carboxamide] |  | 150
COc1ccc(-c2cnc(C(=O)Nc3ccc(C(=O)N4CC(C(=O)N5CCNCC5)C4)c(Cl)c3)n2C)c(F)c1F [Example 69, N-[3-chloro-4-[3-(piperazine-1-carbonyl)azetidine-1-carbonyl]phenyl]-5-(2,3-difluoro-4-methoxy-phenyl)-1-methyl-imidazole-2-carboxamide formate] | 120 | 
COc1ccc(-c2cnc(C(=O)Nc3ccc(C(=O)N4CCN(C(=O)C5(O)CCNCC5)CC4)c(Cl)c3)n2C)c(F)c1F [Example 166, N-[3-chloro-4-[4-(4-hydroxypiperidine-4-carbonyl)piperazine-1-carbonyl]phenyl]-5-(2,3-difluoro-4-methoxy-phenyl)-1-methyl-imidazole-2-carboxamide formate] | 50 | 
COc1ccc(-c2cnc(C(=O)Nc3ccc(C(=O)N4CCN(C(=O)[C@@H]5CCNC[C@@H]5O)CC4)c(Cl)c3)n2C)c(F)c1F [Example 228, N-[3-chloro-4-[4-[(3R,4R)-3-hydroxypiperidine-4-carbonyl]piperazine-1-carbonyl]phenyl]-5-(2,3-difluoro-4-methoxy-phenyl)-1-methyl-imidazole-2-carboxamide] | 180 | 
Cn1c(-c2ccc(OCF)c(F)c2F)cnc1C(=O)Nc1ccc(C(=O)N2CCN(C(=O)CC3(O)CCNCC3)CC2)c(Cl)c1 [Example 164, N-[3-chloro-4-[4-[2-(4-hydroxy-4-piperidyl)acetyl]piperazine-1-carbonyl]phenyl]-5-[2,3-difluoro-4-(fluoromethoxy)phenyl]-1-methyl-imidazole-2-carboxamide formate] | 70 | 
COc1ccc(-c2cnc(C(=O)Nc3ccc(C(=O)N4CCC(NC(=O)CCOCCN)C4)c(Cl)c3)n2C)c(F)c1F (stereo not shown) [Example 111, N-[4-[3-[3-(2-aminoethoxy)propanoylamino]pyrrolidine-1-carbonyl]-3-chloro-phenyl]-5-(2,3-difluoro-4-methoxy-phenyl)-1-methyl-imidazole-2-carboxamide formate] | 300 | 
